Results as given in patent US20190125646A1, “ORAL COMPOSITION FOR TOOTH WHITENING PRODUCT, AND KIT COMPRISING SAME” (LG HOUSEHOLD & HEALTH CARE LTD., priority 2013, published 2019).
“Also recorded” adds a separate entry of the source.

Assays:
[1] = Survey evaluation related to irritation (Experimental Example 3); format: in vivo; conditions: subjects' own evaluation after use, score 0-3; FIG. 3
From the text: After using comparative example 2 and examples 1 and 2, each subject was allowed to evaluate the degree of irritation on a 3-point scale according to the following evaluation criteria.
2: Certainly sensible irritation.
3: Stop using due to irritation

[2] = Brightness variation (Experimental Example 4); conditions: gel first agent plus hydrogen peroxide 3.0% patch on stained HAP disk, removed after 1 hour; FIG. 4
Procedure: Comparative examples 3 through 8 and example 5 were each attached to a stained HAP disk and were removed after 1 hour, and variations relative to initial brightness were measured and were indicated as ΔL.

Row | Compound | degree of irritation (survey, 3-point scale) [1] | whitening effect (variation relative to initial brightness, ΔL) [2]
1 | NCCS(=O)(=O)O [taurine] | significantly reduced | 
2 | iron chloride | more severe | highest tooth whitening effect; also recorded: remarkably superior effect than other metal ions
